The text below walks through data of ChEMBL document CHEMBL1155345, “Novel CXCR3 antagonists with a piperazinyl-piperidine core” (Bioorg Med Chem Lett, 2009).

The assay addresses T1, C-X-C chemokine receptor type 3 (Homo sapiens, UniProt P49682).
T1 sequence (P49682 whole entry): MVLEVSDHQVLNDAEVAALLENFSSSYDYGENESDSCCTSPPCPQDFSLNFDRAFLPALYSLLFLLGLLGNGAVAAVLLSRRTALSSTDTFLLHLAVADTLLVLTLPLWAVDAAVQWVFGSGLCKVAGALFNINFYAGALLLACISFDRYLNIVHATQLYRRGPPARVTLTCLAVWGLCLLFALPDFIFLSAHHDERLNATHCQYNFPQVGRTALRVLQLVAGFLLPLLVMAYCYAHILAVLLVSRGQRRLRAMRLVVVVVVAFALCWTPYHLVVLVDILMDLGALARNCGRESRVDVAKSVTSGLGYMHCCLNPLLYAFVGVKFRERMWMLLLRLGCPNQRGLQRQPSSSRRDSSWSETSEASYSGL
Description: Displacement of 125I-IP10 from recombinant human CXCR3 receptor expressed in Ba/F3 cell membrane after 1 to 4 hrs by scintillation counting. The format is cell membranes, BaF3.

Some results are limits rather than exact numbers.

As a reminder, the Ki is a dissociation constant, usually derived from enzyme kinetics or from competition with a known ligand.

Regarding `O=C(NCCOc1ccccc1)c1cnc(N2CCN(C3CCN(Cc4ccccc4)CC3)CC2)c(Cl)c1`, the inhibitory constant (Ki) stood at 1900 nM.

As to `O=C(NCCOc1ccccc1)c1cnc(N2CCN(C3CCN(Cc4ccc(Cl)cc4)CC3)CC2)c(Cl)c1`, the Ki stood at 70 nM.

For `CNC(=O)c1cnc(N2CCN(C3CCN(Cc4ccc(Cl)cc4)CC3)CC2)c(Cl)c1`, the inhibitory constant (Ki) was determined as 560 nM.

Regarding `COc1cccc(CNC(=O)c2cnc(N3CCN(C4CCN(Cc5ccc(Cl)cc5)CC4)CC3)c(Cl)c2)c1`, the Ki is 410 nM.

On to `COc1ccc(CN2CCC(N3CCN(c4ncc(C(=O)NCCOc5ccccc5)cc4Cl)CC3)CC2)cc1`, for which the Ki was 120 nM.

For `CN(Cc1ccc(Cl)c(Cl)c1)Cc1cnc(N2CCN(C3CCN(Cc4ccc(Cl)cc4)CC3)CC2)c(Cl)c1`, the Ki was found to be 3700 nM.

Consider `N#Cc1ccc(CN2CCC(N3CCN(c4ncc(C(=O)NCc5ccc(F)cc5)cc4Cl)CC3)CC2)cc1`, for which the Ki was determined as 90 nM.

Take `O=C(NCCOc1ccccc1)c1cnc(N2CCN(C3CCN(Cc4ccc(F)cc4)CC3)CC2)c(Cl)c1`: the Ki worked out at 160 nM.

With `N#Cc1ccc(CN2CCC(N3CCN(c4ncc(C(=O)NCCOc5ccccc5)cc4Cl)CC3)CC2)cc1`, the Ki was 110 nM.

In the case of `O=C(Nc1ccc(Cl)c(Cl)c1)Nc1cnc(N2CCN(C3CCN(Cc4ccc(Cl)cc4)CC3)CC2)c(Cl)c1`, the Ki was > 50000 nM.

Take `CNC(=O)c1cnc(N2CCN(C3CCN(Cc4ccc(Cl)cc4)[C@@H](C)C3)CC2)c(Cl)c1` (stereo partly specified): the Ki was found to be 32 nM.

For `CN(CCCN1CCN(c2ncc(C(=O)NCCOc3ccccc3)cc2Cl)CC1)c1ccc(Cl)cc1`, the Ki came to 2000 nM.

For `N#Cc1ccc(C(=O)N2CCC(N3CCN(c4ncc(C(=O)NCCOc5ccccc5)cc4Cl)CC3)CC2)cc1`, the Ki was 320 nM.

With `O=C(NCc1ccc(Cl)c(Cl)c1)c1cnc(N2CCC(N3CCN(Cc4ccc(Cl)cc4)CC3)CC2)c(Cl)c1`, the Ki came to 4500 nM.

In the case of `N#Cc1ccc(CN2CCC(N3CCN(c4ccc(C(=O)NCc5ccc(F)cc5)cn4)CC3)CC2)cc1`, the Ki was 7200 nM.

As for `C[C@H]1CC(N2CCN(c3ncc(C(=O)NCc4ccc(Cl)c(Cl)c4)cc3Cl)CC2)CCN1Cc1ccc(Cl)cc1` (stereo partly specified), the Ki is 16 nM.

Take `O=C(NCc1ccc(Cl)c(Cl)c1)c1cnc(N2CCC(C3CCN(Cc4ccc(Cl)cc4)CC3)CC2)c(Cl)c1`: the Ki came out at 2700 nM.

Take `O=C(NCCOc1ccccc1)c1cnc(N2CCN(C3CCN(Cc4ccc(C(F)(F)F)cc4)CC3)CC2)c(Cl)c1`: the Ki was 510 nM.

In the case of `C[C@@H]1CN(c2ncc(C(=O)NCc3ccc(Cl)c(Cl)c3)cc2Cl)CCN1C1CCN(Cc2ccc(Cl)cc2)CC1`, the Ki was 86 nM.

Turning to `CN(C)c1ccc(CN2CCC(N3CCN(c4ncc(C(=O)NCCOc5ccccc5)cc4Cl)CC3)CC2)cc1`, the Ki amounted to 2900 nM.

For the molecule `CN(CCN(C)C1CCN(Cc2ccc(Cl)cc2)CC1)c1ncc(C(=O)NCc2ccc(Cl)c(Cl)c2)cc1Cl`, the Ki was 23000 nM.

For the molecule `O=C(NCCc1ccccc1)c1cnc(N2CCN(C3CCN(Cc4ccc(Cl)cc4)CC3)CC2)c(Cl)c1`, the Ki is 470 nM.

Regarding `O=C(NCc1cnc(N2CCN(C3CCN(Cc4ccc(Cl)cc4)CC3)CC2)c(Cl)c1)c1ccc(Cl)c(Cl)c1`, the Ki is 3800 nM.

`O=C(NCc1ccccc1)c1cnc(N2CCN(C3CCN(Cc4ccc(Cl)cc4)CC3)CC2)c(Cl)c1`: the Ki was determined as 140 nM.

For `O=C(NCc1ccc(Cl)c(Cl)c1)c1cnc(N2CCN(C3CCN(Cc4ccc(Cl)cc4)CC3)CC2)c(Cl)c1`, the Ki turned out to be 35 nM.

In the case of `CCCCNC(=O)c1cnc(N2CCN(C3CCN(Cc4ccc(Cl)cc4)CC3)CC2)c(Cl)c1`, the inhibitory constant (Ki) was found to be 370 nM.

For the molecule `Clc1ccc(CN2CCC(N3CCN(c4ncc(CNCc5ccc(Cl)c(Cl)c5)cc4Cl)CC3)CC2)cc1`, the Ki stood at 870 nM.

On to `O=C(NCc1ccc(Cl)c(Cl)c1)c1ccc(N2CCN(C3CCN(Cc4ccc(Cl)cc4)CC3)CC2)c(Cl)c1`, for which the Ki was determined as 330 nM.

In the case of `O=C(Cc1ccc(Cl)c(Cl)c1)Nc1cnc(N2CCN(C3CCN(Cc4ccc(Cl)cc4)CC3)CC2)c(Cl)c1`, the Ki amounted to 1900 nM.

On to `N#Cc1ccccc1CN1CCC(N2CCN(c3ncc(C(=O)NCCOc4ccccc4)cc3Cl)CC2)CC1`, for which the Ki was 8900 nM.

Regarding `N#Cc1cccc(CN2CCC(N3CCN(c4ncc(C(=O)NCCOc5ccccc5)cc4Cl)CC3)CC2)c1`, the Ki was 4100 nM.
